Laboratory results taken from patent publication US10844032B2, “Substituted benzofuran, benzothiophene and indole Mcl-1 inhibitors” (Vanderbilt University, priority 2012, dated 2020).

target: recombinant Mcl-1 (residues 172-327) (Homo sapiens (Human), UniProt Q07820); assay: Bak peptide fluorescence polarization anisotropy competition assay, Mcl-1; type: binding; conditions: Table 2, Ki range; FITC-Bak peptide 10 nM, Mcl-1 14 nM; read-out: Ki for inhibition of Mcl-1
Sequence (Q07820 172-327): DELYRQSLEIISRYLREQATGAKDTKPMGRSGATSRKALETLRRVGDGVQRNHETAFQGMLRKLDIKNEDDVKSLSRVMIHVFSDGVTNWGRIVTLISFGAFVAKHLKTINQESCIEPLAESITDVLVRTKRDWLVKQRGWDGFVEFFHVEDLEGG

Compound | Ki [nM]
COc1nccc(C)c1-c1cccc2c(CCCOc3cc(C)c(Cl)c(C)c3)c(C(=O)NS(=O)(=O)c3ccccc3)[nH]c12 [Example 301, 3-(3-(4-chloro-3,5-dimethylphenoxy)propyl)-7-(2-methoxy-4-methylpyridin-3-yl)-N-(phenylsulfonyl)-1H-indole-2-carboxamide] | ≤ 100
Cc1cc(OCCCc2c(C(=O)NS(=O)(=O)c3ccc(C(=O)O)o3)[nH]c3cc(Cl)ccc23)cc(C)c1Cl [Example 261] | ≤ 100
Cc1cc(OCCCc2c(C(=O)NS(=O)(=O)c3ccccc3)[nH]c3c(-c4ncccc4C(F)(F)F)cccc23)cc(C)c1Cl [Example 102, 3-(3-(4-chloro-3,5-dimethylphenoxy)propyl)-N-(phenylsulfonyl)-7-(3-(trifluoromethyl)pyridin-2-yl)-1H-indole-2-carboxamide] | ≤ 100
Cc1cc(OCCCc2c(C(=O)NS(=O)(=O)CCNC(=O)C3CCCCC3)[nH]c3c(-c4c(CO)nn(C)c4C)cccc23)cc(C)c1Cl [Example 205, 3-(3-(4-chloro-3,5-dimethylphenoxy)propyl)-N-((2-(cyclohexanecarboxamido)ethyl)sulfonyl)-7-(3-(hydroxymethyl)-1,5-dimethyl-1H-pyrazol-4-yl)-1H-indole-2-carboxamide] | ≤ 100

same assay, conditions: read-out: Ki for inhibition of Mcl-1

Compound | Ki [nM]
Cc1cc(OCCCc2c(C(=O)NS(=O)(=O)CCNC(=O)c3cccc(Oc4ccccc4)c3)[nH]c3ccccc23)cc(C)c1Cl [Example 167, 3-(3-(4-chloro-3,5-dimethylphenoxy)propyl)-N-((2-(3-phenoxybenzamido)ethyl)sulfonyl)-1H-indole-2-carboxamide] | 101 to 299
Cc1cc(OCCCc2c(C(=O)NS(=O)(=O)CCNC(=O)c3cc(C)n(Cc4ccccc4)c3C)[nH]c3ccccc23)cc(C)c1Cl [Example 194, N-((2-(1-benzyl-2,5-dimethyl-1H-pyrrole-3-carboxamido)ethyl)sulfonyl)-3-(3-(4-chloro-3,5-dimethylphenoxy)propyl)-1H-indole-2-carboxamide] | 101 to 299
O=C(NS(=O)(=O)c1ccc2ccccc2c1)c1oc2ccccc2c1CCCOc1cccc2ccccc12 [Example 25, 3-(3-(naphthalen-1-yloxy)propyl)-N-(naphthalen-2-ylsulfonyl)benzofuran-2-carboxamide] | 1000 to 9990
Cc1ccc2c(CCCOc3cc(C)c(Cl)c(C)c3)c(C(=O)NS(C)(=O)=O)[nH]c2c1 [Example 117, 3-(3-(4-chloro-3,5-dimethylphenoxy)propyl)-6-methyl-N-(methylsulfonyl)-1H-indole-2-carboxamide] | 301 to 500
Cc1cc(OCCCc2c(C(=O)NS(C)(=O)=O)[nH]c3cc(C(F)(F)F)ccc23)cc(C)c1Cl [Example 78, 3-(3-(4-chloro-3,5-dimethylphenoxy)propyl)-N-(methylsulfonyl)-6-(trifluoromethyl)-1H-indole-2-carboxamide] | 301 to 500
Cc1cc(OCCCc2c(C(=O)NS(=O)(=O)CCNC(=O)c3cncn3C)[nH]c3ccccc23)cc(C)c1Cl [Example 187, 3-(3-(4-chloro-3,5-dimethylphenoxy)propyl)-N-((2-(1-methyl-1H-imidazole-5-carboxamido)ethyl)sulfonyl)-1H-indole-2-carboxamide] | 1000 to 9990

Next, values leading:

Ki [nM] | Compound
101 to 299 | Cc1cc(OCCCc2c(C(=O)NS(=O)(=O)C3CCN(C(=O)CCc4ccccc4)CC3)[nH]c3cc(Cl)ccc23)cc(C)c1Cl [Example 310, 6-chloro-3-(3-(4-chloro-3,5-dimethylphenoxy)propyl)-N-((1-(3-phenylpropanoyl)piperidin-4-yl)sulfonyl)-1H-indole-2-carboxamide]
101 to 299 | COC(=O)c1ccc(S(=O)(=O)NC(=O)c2[nH]c3cc(Cl)ccc3c2CCCOc2cc(C)c(Cl)c(C)c2)o1 [Example 259]
1000 to 9990 | Cc1cc(OCCCc2c(C(=O)NS(=O)(=O)c3ccc(OCc4ccccc4)cc3)n(Cc3cccnc3)c3cc(Cl)ccc23)cc(C)c1Cl [Example 274, N-((4-(benzyloxy)phenyl)sulfonyl)-6-chloro-3-(3-(4-chloro-3,5-dimethylphenoxy)propyl)-1-(pyridin-3-ylmethyl)-1H-indole-2-carboxamide]
